Reference: US11655241B2, “Heterocyclic compound and use thereof” (Takeda Pharmaceutical Company Limited, priority 2018, dated 2023)

Target: T1, human orexin type 2 receptor (Homo sapiens, UniProt O43614)
T1 construct: expressed in transfected cells
T1 sequence (O43614 1-444): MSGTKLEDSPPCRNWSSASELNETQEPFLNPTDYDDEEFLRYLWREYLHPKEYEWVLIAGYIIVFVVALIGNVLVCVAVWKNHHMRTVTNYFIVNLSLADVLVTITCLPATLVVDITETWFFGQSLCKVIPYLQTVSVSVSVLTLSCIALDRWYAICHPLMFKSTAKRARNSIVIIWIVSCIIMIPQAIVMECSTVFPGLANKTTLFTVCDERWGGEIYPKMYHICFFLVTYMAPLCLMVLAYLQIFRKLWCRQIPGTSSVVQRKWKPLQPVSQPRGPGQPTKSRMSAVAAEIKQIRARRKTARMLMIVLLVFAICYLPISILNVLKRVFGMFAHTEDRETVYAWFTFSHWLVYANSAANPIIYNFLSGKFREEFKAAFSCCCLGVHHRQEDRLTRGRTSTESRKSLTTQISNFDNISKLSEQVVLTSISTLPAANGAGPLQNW
Assay: Measurement of orexin type 2 receptor agonist activity (calcium fluorescence, Fluo-4 AM, FDSS)
Type: cell-based
Conditions: compound at 3 μM; CHO cells forcibly expressing human OX2 receptor; DMSO = 0%, orexin A (human) 10 nM = 100%
Text: Experimental Example 1: Obtainment of Cell Stably Expressing Human Orexin Type 2 Receptor (hOX2R)
To obtain a cell clone stably expressing human orexin type 2 receptor, human orexin type 2 receptor cDNA was inserted into pcDNA3.1(+) plasmid vector (Invitrogen), and a plasmid DNA for expression of human orexin type 2 receptor (pcDNA3.1(+)/hOX2R) was cloned. The plasmid DNA was introduced into CHO-dhfr cell by an electroporation method, and human orexin type 2 receptor expressing clone cells were obtained by limiting dilution method by using G418 drug resistance as a selection marker.
Experimental Example 2: Measurement of Orexin Type 2 Receptor Agonist Activity
CHO cells forcibly expressing human OX2 receptor were seeded in each well of 384 well black transparent bottom plate (BD Falcon) at 7,500 cells/well, and cultured for one day in a 5% CO2 incubator at 37° C. After removal of the medium in the cell plate, assay buffer A containing a calcium indicator (HBSS (Thermo Fisher Scientific), 20 mM HEPES (Thermo Fisher Scientific), 0.1% BSA (Wako Pure Chemical Industries, Ltd. or Sigma-Aldrich), 2.5 μg/mL Fluo-4 AM (DOJINDO Chemical), 0.08% Pluronic F127 (DOJINDO Chemical), 1.25 mM probenecid (DOJINDO Chemical)) was added at 30 μL/well. The plate was stood for 30 min in a 5% CO2 incubator at 37° C., and further stood at room temperature for 30 min. A test compound prepared by diluting with assay buffer B (HBSS, 20 mM HEPES, 0.1% BSA) was added at 10 μL/well, and the fluorescence value was measured by FDSSμCELL (Hamamatsu Photonics K.K.) every one sec for 1 min, and thereafter every two sec for 1 min 40 sec. The activity (%) of the test compound was calculated assuming that variation in the fluorescence value when DMSO was added instead of the test compound was 0%, and variation in the fluorescence value when orexin A (human) (PEPTIDE INSTITUTE, INC.) was added at the final concentration of 10 nM was 100%. The activity of each compound at the concentration of 3 μM was shown below.

First: O=C(N[C@H]1CCN(C(=O)N2CCC2)[C@H]1Cc1csc(-c2cccc(F)c2)n1)[C@@H]1CCCO1 [Example 23, (2S)-N-[(2S,3S)-1-(azetidine-1-carbonyl)-2-{[2-(3-fluorophenyl)-1,3-thiazol-4-yl]methyl}pyrrolidin-3-yl]oxolane-2-carboxamide]
Second: O=C(N[C@H]1CCN(C(=O)C2CCC2)[C@H]1Cc1csc(-c2cccc(F)c2)n1)[C@@H]1CCCO1 [Example 24, (2S)-N-[(2S,3S)-1-(cyclobutanecarbonyl)-2-{[2-(3-fluorophenyl)-1,3-thiazol-4-yl]methyl}pyrrolidin-3-yl]oxolane-2-carboxamide]
The “OX2R agonist activity (3 μM, %)” value of the first is higher: 76% for the first, 65% for the second.

First: COC1(C(=O)N[C@H]2CCN(C(=O)N3CCC3)[C@H]2Cc2cccc(-c3cccc(F)c3)n2)CC1 [Example 25, N-[(2S,3S)-1-(azetidine-1-carbonyl)-2-([6-(3-fluorophenyl)pyridin-2-yl]methyl]pyrrolidin-3-yl]-1-methoxycyclopropane-1-carboxamide]
Second: COC1(C(=O)N[C@H]2CCN(C(=O)N3CCC3)[C@H]2Cc2csc(-c3cccc(F)c3)n2)CC1 [Example 26, N-[(2S,3S)-1-(azetidine-1-carbonyl)-2-{[2-(3-fluorophenyl)-1,3-thiazol-4-yl]methyl}pyrrolidin-3-yl]-1-methoxycyclopropane-1-carboxamide]
The “OX2R agonist activity (3 μM, %)” value of the first is lower: 54% for the first, 67% for the second.

Going from `COC1(C(=O)N[C@H]2CCN(C(=O)C3CCC3)[C@H]2Cc2csc(-c3cccc(F)c3)n2)CC1` [Example 27, N-[(2S,3S)-1-(cyclobutanecarbonyl)-2-{[2-(3-fluorophenyl)-1,3-thiazol-4-yl]methyl}pyrrolidin-3-yl]-1-methoxycyclopropane-1-carboxamide] to `O=C(N[C@H]1CCN(C(=O)C2CCC2)[C@H]1Cc1cccc(-c2cccc(F)c2)c1)[C@@H]1CCCO1` [Example 33, (2S)-N-{(2S,3S)-1-(cyclobutanecarbonyl)-2-[(3′-fluoro[1,1′-biphenyl]-3-yl)methyl]pyrrolidin-3-yl}oxolane-2-carboxamide], the “OX2R agonist activity (3 μM, %)” value rises from 60% to 97%.

Going from `CN(C)C(=O)C(=O)NC1CCCN(C(=O)C2CCC2)C1Cc1cccc(-c2cccc(F)c2)c1` (stereo not drawn) [Example 29, N^~2^~-{cis-1-(cyclobutanecarbonyl)-2-[(3′-fluoro[1,1′-biphenyl]-3-yl)methyl]piperidin-3-yl}-N^~1^~,N^~1^~- dimethylethanediamide] to `CN(C)C(=O)C(=O)N[C@H]1CCN(C(=O)C2CCC2)[C@H]1Cc1cccc(-c2cccc(F)c2)c1` [Example 32, N^~2^~-{(2S,3S)-1-(cyclobutanecarbonyl)-2-[(3′-fluoro[1,1′-biphenyl]-3-yl)methyl]pyrrolidin-3-yl}-N^~1^~,N^~1^~- dimethylethanediamide], the “OX2R agonist activity (3 μM, %)” value rises from 80% to 103%.

Going from `CN(C)C(=O)C(=O)N[C@H]1CCN(C(=O)N2CCC2)[C@H]1Cc1cccc(-c2cccc(F)c2)c1` [Example 30, N^~2^~-{(2S,3S)-1-(azetidine-1-carbonyl)-2-[(3′-fluoro[1,1′-biphenyl]-3-yl)methyl]pyrrolidin-3-yl}-N^~1^~,N^~1^~-dimethylethanediamide] to `CN(C)C(=O)C(=O)N[C@H]1CCN(C(=O)C2(F)CCC2)[C@H]1Cc1cccc(-c2cccc(F)c2)c1` [Example 35, N^~2^~-[(2S,3S)-2-[(3′-fluoro[1,1′-biphenyl]-3-yl)methyl]-1-(1-fluorocyclobutane-1-carbonyl)pyrrolidin-3-yl]-N^~1^~,N^~1^~- dimethylethanediamide], the “OX2R agonist activity (3 μM, %)” value falls from 101% to 75%.

Compared with `O=C(N[C@H]1CCN(C(=O)N2CCC2)[C@H]1Cc1cccc(-c2cccc(F)c2)c1)[C@@H]1CCCO1` [Example 31, (2S)-N-{(2S,3S)-1-(azetidine-1-carbonyl)-2-[(3′-fluoro[1,1′-biphenyl]-3-yl)methyl]pyrrolidin-3-yl}oxolane-2-carboxamide], `O=C(N[C@H]1CCN(C(=O)C2(F)CCC2)[C@H]1Cc1cccc(-c2cccc(F)c2)c1)[C@@H]1CCCO1` [Example 43, (2S)-N-[(2S,3S)-2-[(3′-fluoro[1,1′-biphenyl]-3-yl)methyl]-1-(1-fluorocyclobutane-1-carbonyl)pyrrolidin-3-yl]oxolane-2-carboxamide] is lower in “OX2R agonist activity (3 μM, %)” value: 104% for the first, 62% for the second.

Going from `CN(C)C(=O)C(=O)N[C@H]1CCN(C(=O)C2(C#N)CCC2)[C@H]1Cc1cccc(-c2cccc(F)c2)c1` [Example 36, N^~2^~-((2S,3S)-1-(1-cyanocyclobutane-1-carbonyl)-2-[(3′-flluoro[1,1′-biphenyl]-3-yl)methyl]pyrrolidin-3-yl]-N^~1^~,N^~1^~- dimethylethanediamide] to `CN(C)C(=O)C(=O)N[C@H]1CCN(C(=O)C2(O)CCC2)[C@H]1Cc1cccc(-c2cccc(F)c2)c1` [Example 37, N^~2^~-[(2S,3S)-2-[(3′-fluoro[1,1′-biphenyl]-3-yl)methyl]-1-(1-hydroxycyclobutane-1-carbonyl)pyrrolidin-3-yl]-N^~1^~,N^~1^~- dimethylethanediamide], the “OX2R agonist activity (3 μM, %)” value rises from 86% to 101%.

Compared with `CN(C)C(=O)C(=O)N[C@H]1CCN(C(=O)C(C)(C)CO)[C@H]1Cc1cccc(-c2cccc(F)c2)c1` [Example 40, N^~2^~-[(2S,3S)-2-[(3′-fluoro[1,1′-biphenyl]-3-yl)methyl]-1-(3-hydroxy-2,2-dimethylpropanoyl)pyrrolidin-3-yl]-N^~1^~,N^~1^~-dimethylethanediamide], `CC(C)(CO)C(=O)N1CC[C@H](NC(=O)[C@@H]2CCCO2)[C@@H]1Cc1cccc(-c2cccc(F)c2)c1` [Example 46, (2S)-N-[(2S,3S)-2-[(3′-fluoro[1,1′-biphenyl]-3-yl)methyl]-1-(3-hydroxy-2,2-dimethylpropanoyl)pyrrolidin-3-yl]oxolane-2-carboxamide] is lower in “OX2R agonist activity (3 μM, %)” value: 79% for the first, 67% for the second.

With `O=C(N[C@H]1CCN(C(=O)C2(O)CCC2)[C@H]1Cc1cccc(-c2cccc(F)c2)c1)[C@@H]1CCCO1` [Example 45] the “OX2R agonist activity (3 μM, %)” value was 86%.
